Activity data for two molecules are collected here from ChEMBL document CHEMBL4177616, “Potent anti-melanogenic activity and favorable toxicity profile of selected 4-phenyl hydroxycoumarins in the zebrafish model and the computational molecular modeling studies” (Bioorg Med Chem, 2017).

The species named for data set [1] is Danio rerio. Description: Toxicity in wild type zebrafish embryos assessed as heart beat at 1000 ug/ml treated for 96 hrs post fertilization starting from 6 hrs post fertilization by inverted microscopic analysis relative to control. Type of data set: organism-based. The following applies: in vivo.
The species named for data set [2] is Danio rerio. Description: Toxicity in wild type zebrafish embryos assessed as heart beat at 100 ug/ml treated for 96 hrs post fertilization starting from 6 hrs post fertilization by inverted microscopic analysis relative to control. The data set is classed as organism-based. Conditions: in vivo.
Data set [3] relates to Danio rerio. Description: Toxicity in wild type zebrafish embryos assessed as yolk edema at 2000 ug/ml treated for 96 hrs post fertilization starting from 6 hrs post fertilization by inverted microscopic analysis relative to control. The data set is classed as organism-based. The following applies: in vivo.
The test system of data set [4] is Danio rerio. Description: Toxicity in wild type zebrafish embryos assessed as yolk edema at 500 ug/ml treated for 96 hrs post fertilization starting from 6 hrs post fertilization by inverted microscopic analysis relative to control. The data set is classed as organism-based. The following applies: in vivo.
Data set [5] is filed under the species Danio rerio. Description: Toxicity in wild type zebrafish embryos assessed as eyes at 500 ug/ml treated for 96 hrs post fertilization starting from 6 hrs post fertilization by inverted microscopic analysis relative to control. Type of data set: organism-based. The following applies: in vivo.
Data set [6] is filed under the species Danio rerio. Description: Toxicity in wild type zebrafish embryos assessed as eyes at 100 ug/ml treated for 96 hrs post fertilization starting from 6 hrs post fertilization by inverted microscopic analysis relative to control. The data set is classed as organism-based. Conditions: in vivo.
The species entered for data set [7] is Danio rerio. Description: Toxicity in wild type zebrafish embryos assessed as otoliths at 2000 ug/ml treated for 96 hrs post fertilization starting from 6 hrs post fertilization by inverted microscopic analysis relative to control. Type of data set: organism-based. Conditions: in vivo.
The species named for data set [8] is Danio rerio. Description: Toxicity in wild type zebrafish embryos assessed as notochord at 100 ug/ml treated for 96 hrs post fertilization starting from 6 hrs post fertilization by inverted microscopic analysis relative to control. The data set is classed as organism-based. Conditions: in vivo.
Data set [9] is filed under the species Danio rerio. Description: Toxicity in wild type zebrafish embryos assessed as skeletal deformities at 2000 ug/ml treated for 96 hrs post fertilization starting from 6 hrs post fertilization by inverted microscopic analysis relative to control. Type of data set: organism-based. Conditions: in vivo.
The subject of data set [10] is Danio rerio. Description: Toxicity in wild type zebrafish embryos assessed as pericardial edema at 100 ug/ml treated for 96 hrs post fertilization starting from 6 hrs post fertilization by inverted microscopic analysis relative to control. The data set is classed as organism-based. Conditions: in vivo.
Data set [11] is filed under the species Danio rerio. Description: Toxicity in wild type zebrafish embryos assessed as teratogenic embryo at 100 ug/ml treated for 96 hrs post fertilization starting from 6 hrs post fertilization by inverted microscopic analysis relative to control. Type of data set: organism-based. Conditions: in vivo.
For data set [12], the species on record is Danio rerio. Description: Toxicity in wild type zebrafish embryos assessed as head malformation at 2500 ug/ml treated for 96 hrs post fertilization starting from 6 hrs post fertilization by inverted microscopic analysis relative to control. Type of data set: organism-based. Conditions: in vivo.
Data set [13] is filed under the species Danio rerio. Description: Toxicity in wild type zebrafish embryos assessed as unhatched embryo at 500 ug/ml treated for 96 hrs post fertilization starting from 6 hrs post fertilization by inverted microscopic analysis relative to control. Type of data set: organism-based. The following applies: in vivo.
Data set [14] is filed under the species Danio rerio. Description: Toxicity in wild type zebrafish embryos assessed as skeletal deformities at 500 ug/ml treated for 96 hrs post fertilization starting from 6 hrs post fertilization by inverted microscopic analysis relative to control. Type of data set: organism-based. Conditions: in vivo.
For data set [15], the species on record is Danio rerio. Description: Toxicity in wild type zebrafish embryos assessed as teratogenic embryo at 2500 ug/ml treated for 96 hrs post fertilization starting from 6 hrs post fertilization by inverted microscopic analysis relative to control. The data set is classed as organism-based. Conditions: in vivo.
The species entered for data set [16] is Danio rerio. Description: Toxicity in wild type zebrafish embryos assessed as notochord at 1000 ug/ml treated for 96 hrs post fertilization starting from 6 hrs post fertilization by inverted microscopic analysis relative to control. Type of data set: organism-based. Conditions: in vivo.
Data set [17] is filed under the species Danio rerio. Description: Toxicity in wild type zebrafish embryos assessed as normal embryo at 500 ug/ml treated for 96 hrs post fertilization starting from 6 hrs post fertilization by inverted microscopic analysis relative to control. The data set is classed as organism-based. The following applies: in vivo.
Data set [18] is filed under the species Danio rerio. Description: Toxicity in wild type zebrafish embryos assessed as head malformation at 2000 ug/ml treated for 96 hrs post fertilization starting from 6 hrs post fertilization by inverted microscopic analysis relative to control. The data set is classed as organism-based. The following applies: in vivo.
Data set [19] concerns the target T1, Tyrosinase (Danio rerio) (UniProt A0A8M1PAD4).
T1 sequence (whole entry): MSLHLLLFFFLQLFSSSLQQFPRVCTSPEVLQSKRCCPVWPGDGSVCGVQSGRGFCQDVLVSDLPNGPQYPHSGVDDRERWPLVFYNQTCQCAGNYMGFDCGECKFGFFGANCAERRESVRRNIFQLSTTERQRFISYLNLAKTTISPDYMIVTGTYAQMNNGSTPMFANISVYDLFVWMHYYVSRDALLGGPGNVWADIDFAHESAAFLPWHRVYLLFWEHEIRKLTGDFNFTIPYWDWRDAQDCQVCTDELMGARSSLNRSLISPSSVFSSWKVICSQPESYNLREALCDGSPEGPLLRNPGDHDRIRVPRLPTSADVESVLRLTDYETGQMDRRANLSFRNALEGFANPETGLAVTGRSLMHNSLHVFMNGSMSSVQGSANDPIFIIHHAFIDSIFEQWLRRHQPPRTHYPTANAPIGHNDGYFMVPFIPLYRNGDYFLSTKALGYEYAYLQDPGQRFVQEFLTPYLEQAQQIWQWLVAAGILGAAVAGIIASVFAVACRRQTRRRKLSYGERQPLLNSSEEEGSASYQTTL
Description: Inhibition of zebrafish embryo tyrosinase assessed as residual activity at 50 ug/ml after 48 hrs relative to control.

SMILES strings stand for the structures.

In the case of `O=c1cc(CO)occ1O` [KOJIC ACID], the Activity is 83.33% in [1]; 0% in data set [2]; 0% in data set [3]; 0% in data set [4]; 0% in [5]; 0% in data set [6]. Besides, the Activity in [7] worked out at 31.67%; in [8], 0%; in [9] it was 78.33%; in data set [10], 35%; in data set [11] it was 35%; in data set [12] it was 98.33%. For the same molecule, the Activity in data set [13] turned out to be 0%; in data set [14], 0%; in [15], 100%; in data set [16] it was 0%; in data set [17] it was 13.33%; in data set [18] it was 78.33%.
With `O=c1cc(-c2ccccc2)c2ccc(O)cc2o1`, the Activity in data set [19] was determined as 48%.
